According to BindingDB's records for doi:10.1021/np980119+ (University of California, 1999):

Assay: Inhibition of phorbol ester-induced ornithine decarboxylase in human MCF7 cells after 6 hrs

Row | IC50 | Compound
1 | 19 µM | Oc1ccc(/C=C/c2cc(O)cc(O)c2)cc1 [5-[(E)-2-(4-hydroxyphenyl)ethenyl]benzene-1,3-diol]
2 | 7.4 µM | COc1cc(/C=C/c2cc(OC)c3c(c2)OC(C)(C)C=C3)ccc1O [3,5'-dimethoxy-4-hydroxy-6'',6''-dimethylpyran[2'',3'':3',4']stilbene]
3 | 3.9 µM | COc1cc(/C=C/c2ccc3c(c2)OC(C)(C)C=C3)cc(OC)c1OC [3,4,5-trimethoxy-6'',6''-dimethylpyran[2'',3'':3',4']stilbene]
4 | 3.6 µM | COc1cc(/C=C/C(=O)c2ccc3c(c2O)C=CC(C)(C)O3)ccc1O [3-methoxy-4-hydroxylonchocarpin]
5 | 26 µM | O=c1c(-c2ccc(O)cc2)coc2cc(O)cc(O)c12 [Prunetol]
6 | 1.1 µM | COc1cc([C@@H]2CC(=O)c3c(O)c(CC=C(C)C)c4c(c3O2)C=CC(C)(C)O4)ccc1O [(2S)-6-(gamma,gamma-dimethylallyl)-5,4'-dihydroxy-3'-methoxy-6'',6''-dimethylpyran[2'',3'':7,8]flavanone]
7 | 2.3 µM | COc1ccc([C@@H]2CC(=O)c3cc(CC=C(C)C)c4c(c3O2)C=CC(C)(C)O4)cc1OC [(2S)-6-(gamma,gamma-dimethylallyl)-3',4'-dimethoxy-6'',6''-dimethylpyran[2'',3'':7,8]flavanone]
